{"source": "ChEMBL document CHEMBL4828769", "about": "“Discovery of AS-0141, a Potent and Selective Inhibitor of CDC7 Kinase for the Treatment of Solid Cancers” (J Med Chem, 2021)", "key": {"SW-620": {"test_system": "SW-620", "assay": "Induction of apoptosis in human SW-620 cells assessed as increase in cleaved caspase 3 level incubated for 48 hrs by Western blot analysis", "type": "functional, cell-based", "conditions": "dose 0.03-1 µM"}, "[1]": {"assay": "Cmax in dog at 1 mg/kg, iv", "type": "ADME, organism-based, Canis lupus familiaris", "design": "route intravenous, dose 1 mg/kg", "conditions": "in vivo"}, "[2]": {"target": "T1, Cell division cycle 7-related protein kinase (Homo sapiens, UniProt O00311)", "T1 sequence (O00311 whole entry, looked up)": "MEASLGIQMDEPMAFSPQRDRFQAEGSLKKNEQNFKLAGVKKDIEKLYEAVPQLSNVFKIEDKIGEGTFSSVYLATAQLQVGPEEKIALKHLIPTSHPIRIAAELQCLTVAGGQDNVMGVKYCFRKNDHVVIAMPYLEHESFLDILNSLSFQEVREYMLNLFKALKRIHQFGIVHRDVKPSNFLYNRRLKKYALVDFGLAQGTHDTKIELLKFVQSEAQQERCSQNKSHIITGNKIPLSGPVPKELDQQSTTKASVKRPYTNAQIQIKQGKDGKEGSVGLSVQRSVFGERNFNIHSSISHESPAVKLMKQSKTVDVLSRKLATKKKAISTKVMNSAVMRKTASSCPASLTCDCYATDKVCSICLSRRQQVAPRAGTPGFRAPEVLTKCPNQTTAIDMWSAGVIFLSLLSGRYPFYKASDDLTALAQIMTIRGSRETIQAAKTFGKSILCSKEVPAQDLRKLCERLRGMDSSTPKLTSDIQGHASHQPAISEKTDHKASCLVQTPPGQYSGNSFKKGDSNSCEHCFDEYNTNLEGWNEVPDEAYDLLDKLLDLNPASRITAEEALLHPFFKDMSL", "assay": "Reversible inhibition of human CDC7 assessed as off-rate preincubated for 50 mins followed by substrate addition in presence of ATP by rapid dilution assay"}, "[3]": {"assay": "Cmax in dog at 2 mg/kg, po", "type": "ADME, organism-based, Canis lupus familiaris", "design": "route oral, dose 2 mg/kg", "conditions": "in vivo"}, "[4]": {"assay": "In vivo inhibition of CDC7 in human SW-620 cells xenografted in BALB/c nude mouse assessed as reduction in phosphorylation of MCM2 at Ser53 residue at 120 mg/kg, po measured after 24 hrs", "type": "functional", "conditions": "SW-620, po"}, "[5]": {"assay": "MRT in mouse at 1 mg/kg, iv", "type": "ADME, organism-based", "conditions": "in vivo"}, "[6]": {"assay": "Cmax in mouse at 10 mg/kg, po", "type": "ADME, organism-based", "design": "route oral, dose 10 mg/kg", "conditions": "in vivo"}, "[7]": {"target": "T2, Serine/threonine-protein kinase pim-1 (Homo sapiens, UniProt P11309)", "assay": "Inhibition of PIM1 (unknown origin) in presence of 1 mM ATP without preincubation"}, "COLO 205": {"test_system": "COLO 205", "assay": "Induction of cell cycle arrest in human COLO205 cells assessed as accumulation of cells at sub-G1 phase at 1 uM incubated for 48 hrs by propidium iodide staining based flow cytometry analysis", "type": "functional"}, "Homo sapiens": {"species_on_record": "Homo sapiens", "assay": "Selectivity index, ratio of IC50 for CLK2 (unknown origin) in presence of 1 mM ATP without preincubation to IC50 for CLK2 (unknown origin) in presence of 1 mM ATP with preincubation"}, "[8]": {"assay": "Protein binding in human plasma assessed as unbound fraction", "type": "ADME, cell-free"}, "[9]": {"assay": "Tmax in dog at 2 mg/kg, po", "type": "ADME, organism-based, Canis lupus familiaris", "conditions": "in vivo"}, "[10]": {"target": "T1, Cell division cycle 7-related protein kinase", "assay": "Inhibition of CDC7 in human COLO 205 cells assessed as reduction in phosphorylation of MCM2 at 1 uM preincubated for 48 hrs followed by compound washout measured after 24 hrs by Western blot analysis", "type": "cell-based"}, "[11]": {"assay": "Half life in rat at 10 mg/kg, po", "type": "ADME, organism-based", "conditions": "in vivo"}, "[12]": {"target": "T2, Serine/threonine-protein kinase pim-1", "assay": "Inhibition of PIM1 (unknown origin) at 0.1 uM in presence of 1 mM ATP relative to control"}, "[13]": {"target": "Glycogen synthase kinase-3 alpha (Homo sapiens, UniProt P49840)", "sequence (P49840 2-483 limits assumed)": "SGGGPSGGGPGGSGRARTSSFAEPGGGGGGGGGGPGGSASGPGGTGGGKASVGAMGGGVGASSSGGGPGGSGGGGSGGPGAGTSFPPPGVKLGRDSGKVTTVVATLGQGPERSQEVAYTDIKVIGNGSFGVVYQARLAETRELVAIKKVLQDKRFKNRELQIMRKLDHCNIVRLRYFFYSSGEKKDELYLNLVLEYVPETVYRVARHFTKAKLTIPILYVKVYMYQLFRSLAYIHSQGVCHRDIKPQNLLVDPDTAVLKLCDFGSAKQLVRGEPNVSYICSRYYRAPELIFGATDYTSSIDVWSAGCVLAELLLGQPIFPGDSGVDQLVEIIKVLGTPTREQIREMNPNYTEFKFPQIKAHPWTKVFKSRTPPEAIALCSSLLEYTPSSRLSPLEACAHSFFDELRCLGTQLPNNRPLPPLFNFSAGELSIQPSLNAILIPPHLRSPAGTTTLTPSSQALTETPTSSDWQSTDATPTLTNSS", "assay": "Inhibition of GSK3alpha (unknown origin) at 0.1 uM in presence of 1 mM ATP relative to control"}, "[14]": {"assay": "Metabolic stability in human liver microsomes assessed as parent compound remaining after 30 mins", "type": "ADME, Microsome", "conditions": "liver microsomes, read-out: Stability"}, "[15]": {"assay": "Apparent permeability across apical to basolateral side in human Caco-2 cells", "type": "ADME, cell-based"}, "[16]": {"assay": "Metabolic stability in dog liver microsomes assessed as parent compound remaining after 30 mins", "type": "ADME, Canis lupus familiaris, Microsome", "conditions": "read-out: Stability"}, "[17]": {"assay": "Inhibition of human CDC7/ASK using FITC-labelled MCM2 substrate preincubated for 30 mins followed by substrate addition and measured after 5 hrs in presence of 1 mM of ATP"}, "[18]": {"assay": "Half life in mouse at 10 mg/kg, po", "type": "ADME, organism-based", "conditions": "in vivo"}, "[19]": {"assay": "Half life in dog at 2 mg/kg, po", "type": "ADME, organism-based, Canis lupus familiaris", "conditions": "in vivo"}, "[20]": {"assay": "AUC(0 to infinity) in rat at 2 mg/kg, iv", "type": "ADME, organism-based", "design": "route intravenous, time infinity, dose 2 mg/kg", "conditions": "in vivo"}, "[21]": {"assay": "Volume of distribution in mouse at 1 mg/kg, iv", "type": "ADME, organism-based", "conditions": "in vivo"}}, "note": "Activity calls are given as the source filed them. No cut-off for these calls is given here."}
{"smiles": "CCOC(=O)C1=C(NN2CCN(CC(F)(F)F)CC2)O/C(=C\\c2c[nH]c3ncccc23)C1=O", "note": "[MONZOSERTIB]", "values": [{"measurement": "Activity", "setting": "SW-620", "value": "Dose-Dependent Effect"}, {"measurement": "Cmax", "setting": "[1]", "value": 298, "unit": "ng/mL"}, {"measurement": "T1/2", "setting": "[2]", "value": 3.58, "unit": "h"}, {"measurement": "Cmax", "setting": "[3]", "value": 96.1, "unit": "ng/mL"}, {"measurement": "inhibition in vivo at 120 mg/kg", "setting": "[4]", "value": 36, "unit": "%"}, {"measurement": "MRT", "setting": "[5]", "value": 0.3, "unit": "h"}, {"measurement": "Cmax", "setting": "[6]", "value": 285, "unit": "ng/mL"}, {"measurement": "IC50", "setting": "[7]", "value": 30, "unit": "nM"}, {"measurement": "Activity", "setting": "COLO 205", "value": 51, "unit": "%"}, {"measurement": "Ratio IC50", "setting": "Homo sapiens", "value": 1.2}, {"measurement": "fraction unbound", "setting": "[8]", "value": 0.088}, {"measurement": "Tmax", "setting": "[9]", "value": 2.67, "unit": "h"}, {"measurement": "inhibition", "setting": "[10]", "value": "Active"}, {"measurement": "half-life", "setting": "[11]", "value": 6.1, "unit": "h"}, {"measurement": "inhibition", "setting": "[12]", "value": "> 30", "unit": "%"}, {"measurement": "inhibition", "setting": "[13]", "value": "> 30", "unit": "%"}, {"measurement": "remaining at 0.5 h", "setting": "[14]", "value": 89, "unit": "%"}, {"measurement": "Papp A→B", "setting": "[15]", "value": 24.9, "unit": "×10⁻⁶ cm/s"}, {"measurement": "remaining at 0.5 h", "setting": "[16]", "value": 81, "unit": "%"}, {"measurement": "IC50", "setting": "[17]", "value": 2.4, "unit": "nM"}, {"measurement": "half-life", "setting": "[18]", "value": 1.45, "unit": "h"}, {"measurement": "half-life", "setting": "[19]", "value": 4.19, "unit": "h"}, {"measurement": "AUC(0-inf)", "setting": "[20]", "value": 887, "unit": "ng·h/mL"}, {"measurement": "Vd", "setting": "[21]", "value": 3.1, "unit": "L/kg"}]}
